Earlier results, collected in PMC7845544 (Frontiers in Pharmacology, 2021).

Legend:
human FSHR = system: human FSHR; set-up: method as in Gerrits et al., 2016; settings: ref Gerrits et al., 2016; read-out: human FSHR-AA EC50; cited from earlier work
women = system: women; set-up: method as in Gerrits et al., 2016; settings: up to 40 mg/day; ref Gerrits et al., 2016; cited from earlier work
TSH receptor = target: TSH receptor; set-up: method as in Gerrits et al., 2016; settings: ref Gerrits et al., 2016, cited from earlier work
monkeys = system: monkeys; set-up: method as in Gerrits et al., 2016; settings: ref Gerrits et al., 2016, cited from earlier work
[1] = set-up: method as in Ghobadi et al., 2009; settings: ref Ghobadi et al., 2009; cited from earlier work

Row | Structure (SMILES) | EC50 (human FSHR) [nM] | follicular growth in human phase one study (women) | EC50 (TSH receptor; read-out: TSH receptor EC50) [nM] | TSHR/FSHR (TSH receptor) | dose for thyroid follicular cell hypertrophy (monkeys) [mg/kg] | fold separation between ovarian and thyroid stimulation (monkeys) [fold] | dose required for folliculogenesis (monkeys; twice daily) [mg/kg] | elimination from blood [1] [h]
1 | COc1cc2c(cc1CC(C)C)-c1c(-c3cccs3)cc(C(=O)N(C)C(C)(C)C)n1CC2 [MK-8389] | 4.2 | failed to induce follicular growth | 340 | 81 | 23 | 10 | 2.25 | –
2 | CCN(CC)CCOc1ccc(C(=C(Cl)c2ccccc2)c2ccccc2)cc1 [clomiphene] | – | – | – | – | – | – | – | ≥ 72
